From patent US20130123358A1, “Metabolic Benefits to Butyrate as a Chronic Diet Supplement” (priority 2009, published 2013)

Tests used:
[1] = test system: HDAC; assay: Histone Deacetylase Assay Kit, inhibition by butyrate isoforms; settings: Histone Deacetylase Assay Kit (Upstate), FIG. 8
Text: Several isoforms of butyrate were purchased (Sigma Aldrich Chemicals, St. Louis, Mo.) and tested for inhibitory activity of HDAC, using a Histone Deacetylase Assay Kit (Upstate Biotechnology, Lake Placid, N.Y.).

[2] = test system: C57BL/6J mice on high fat diet; assay: Blood lipids and TNF-a in HFD mice; assay type: in vivo, mouse
Procedure: The serum fatty acids including butyrate were examined using a protocol described elsewhere (18), and as described below in Example 10. The fatty acids in feces were determined using a protocol as described by Schwarz (19). Triglyceride and cholesterol were measured in the whole blood with the Cardiochek portable test system.
Levels of cholesterol, total triglyceride and inflammation cytokines (TNF-a) were elevated in the blood of dietary obese mice. With 5% SB supplementation, these risk factors for cardiovascular disease were all reduced in the mice (FIG. 10A-E). Blood samples were taken from control and butyrate-supplemented mice at 10 weeks on HFD. The cholesterol, HDL (high density lipoprotein), LDL (low density lipoprotein), and triglyceride were measured with cholesterol reagent kit (cat #. 80015, Rainchem, San Diego, Calif.), and the Cardiochek whole blood test system (Polymer Technology Systems, Inc. IN). Data are presented as means±SEM (n=6). **P<0.001 by Student's t test.

[3] = test system: ruminant mammals; settings: intravenous use, including in the form of tributyrin; cited from earlier work
[4] = test system: pigs; settings: dietary; cited from earlier work
[5] = test system: C57BL/6J mice on high fat diet; assay: Energy metabolism and body composition in diet-induced obesity, butyrate started with HFD; assay type: in vivo, mouse
Procedure: Male C57BL/6J (4 weeks in age) and ob/ob mice (4 weeks in age) were purchased from the Jackson Laboratory (Bar Harbor, Me.). After one week quarantine, the C57BL/6J mice were fed on the high fat diet (HFD, D12331, Research Diets, New Brunswick, N.J.), which contains 58% calories in fat. The ob/ob mice were fed on Chow diet (5001, Lab Diet) that contains 13.4% calories in fat. All of the mice were housed in the animal facility with a 12:12-h light-dark cycle and constant temperature (22-24° C.). The mice were free to access water and diet. All procedures were performed in accordance with National Institute of Health guidelines for the care and use of animals and approved by the Institute Animal Care and Use Committee at the Pennington Biomedical Research Center.
Sodium butyrate was administrated through dietary supplementation. Sodium butyrate (#303410, Sigma) was incorporated into the HFD evenly through blending the diet and sodium butyrate together at 400 rpm in a food processor. Sodium butyrate (50 g) was used in 1 kg diet to reach a dose of 5% w/w. The sodium butyrate containing diet was pelleted and stored in a −20° C. freezer. Trichostatin A (TSA) (T-1052, A.G. Scientific Inc. San Diego, Calif.) was dissolved in DMSO, and diluted in 0.9% saline at 2:98 ratio. The TSA solution (200 ul) was administrated by intra-peritoneal (i.p.) injection to reach a dose of […]. The control mice were administrated with the same volume of vehicle. 50 ml of tributyrin (#113026, Sigma) was incorporated into one kilogram of Chow diet in powder to reach a dose of 5% w/w in mice.
Body composition was measured using quantitative nuclear magnetic resonance (NMR) as previously described (15). In the test, a conscious and unrestrained mouse was placed in a small tube one at a time and individually tested using a Brucker model mq10 NMR analyzer (Brucker, Canada, Milton ON, Canada). The fat and lean mass were recorded within 1 min. Measurements were made in triplicate for each mouse.
Energy expenditure, respiratory exchange ratio (RER), spontaneous physical movement, and food intake were measured simultaneously for each mouse with the Comprehensive Laboratory Animal Monitoring System (Columbus Instruments, Columbus, Ohio) as described previously (15). The temperature in the metabolic chamber was 24° C. The mice were housed individually in the metabolic chamber. After 48 h of adaptation, the data were recorded for all parameters and used in analysis of the energy metabolism.
Butyrate was initially tested for prevention of dietary obesity. In the diet-induced obesity model, the butyrate supplementation started at the beginning of high fat diet (HFD) feeding. The plain HFD was used in the control group. Calorie intake was monitored four times in the first ten weeks. After normalization with body weight, the calorie intake was reduced with the increase in age.
Energy expenditure was examined in C57BL/6J mice using the metabolic chamber at the first week and the tenth week on HFD (16 weeks in age). In this study, sodium butyrate was used at 5% w/w in HFD. […] Food intake was monitored daily for 5 days at each time point. Average daily food intake (g) was converted into K calorie and normalized with body weight (kg) and 24 hours. […] FIG. 1E illustrates the body weight of the mice over 16 weeks. FIG. 1F illustrates the body fat content as determined by NMR expressed as a percentage of body weight. FIG. 1G illustrates the body muscle content expressed as a percentage of body weight. […] Feces were collected in the cages during a 24 hr period on HFD at 12 weeks, and the total lipids were extracted and quantified (P>0.05, n=5). […] The frequency of horizontal movement was shown for day and night time at 10 wks on HFD. For FIGS. 1A-1D and 1I, the number of mice was 8 in both the control or butyrate groups. For FIGS. 1E-1G, the number of mice was 10 in both the control or butyrate group. Values given in FIGS. 1A-1I are the mean±SE. *P<0.05, **P<0.001 by Student's t test. […]

[6] = test system: C57BL/6J mice on high fat diet; assay: Butyrate at 2.5% w/w in HFD; assay type: in vivo, mouse; settings: butyrate 2.5% w/w in HFD
Procedure: Sodium butyrate (#303410, Sigma) was tested at two dosages, 5% and 2.5% w/w in HFD. The metabolic effects presented above were from 5%. […] Insulin sensitivity at 12 weeks as indicated by insulin tolerance test (ITT) and glucose tolerance test (GTT) at 13 weeks was higher in the butyrate group than that of the control group (FIGS. 12C and 12D). For the glucose tolerance test, after an overnight fast, 2.5 g/kg glucose was injected intraperitoneally. Blood glucose was measured as described above at 0, 30, 60 and 120 min after injection. […] show values as the means±SE (N=8 in each group), and * indicates p<0.05.

[7] = butyrate 5% w/w in HFD vs control, metabolic chamber, weeks 1 and 10
[8] = butyrate 5% w/w in HFD, NMR, change during 16 weeks

In the case of CCCC(=O)[O-].[Na+] [sodium butyrate], the “inhibitory activity of HDAC” value [1] is reported as “inhibited HDAC”, the “LDL, reduction vs control” value ([2]; 5% SB in HFD, 10 weeks, blood) is reported as 41% and the “Triglyceride, reduction vs control” value ([2]; 5% SB in HFD, 10 weeks, blood) is reported as 40%. The “total cholesterol, reduction vs control” value ([2]; 5% SB in HFD, 10 weeks, blood) was 25%, the “TNF-a, reduction vs control” value ([2]; 5% SB in HFD, 10 weeks, blood, Luminex) was 70% and the “blood total fatty acids” value ([2]; butyrate 5% w/w in HFD) was “decreased”. The “serum glucose and insulin” value [3] was “increase”, the “daily body mass gain” value [4] was “increase” and the “toxicity (by food intake and physical activity)” value ([5]; butyrate 5% w/w in HFD) was “no toxicity was observed”. For the same compound, the calorie intake ([5]; butyrate 5% w/w in HFD vs HFD control, first ten weeks) was “significantly higher at all of the time points”, the “body length (mouse growth)” value ([5]; butyrate 5% w/w in HFD vs control) was “identical between the two groups” and the spontaneous physical activity ([5]; butyrate 5% w/w in HFD vs control, 10 wks on HFD, day and night) was “not reduced”. For the same compound, the energy expenditure [5, 7] was “elevated at the night time”, the oxygen consumption [5, 7] was “elevated at the night time” and the “respiratory exchange ratio (RER)” value ([5]; butyrate 5% w/w in HFD vs control, weeks 1 and 10) was “reduced during the day and night time”. For the same compound, the “fat content (adiposity)” value [5, 8] was “not significantly changed”, the lean mass [5, 8] was “not significantly changed” and the body weight ([5]; butyrate 5% w/w in HFD, change during 16 weeks) was “not significantly changed”. For the same compound, the body fat content ([5]; butyrate 5% w/w in HFD, without a reduction in food intake) was 10%, the hepatic steatosis ([5]; mice on high fat diet with SB, sixteen weeks) was “reduced” and the body weight ([6]; 12 weeks) was “reduced”. The “insulin sensitivity by insulin tolerance test (ITT)” value ([6]; 12 weeks) was “higher”, the fat content ([6]; 12 weeks, NMR) was “reduced” and the “insulin sensitivity by glucose tolerance test (GTT)” value ([6]; 13 weeks, 2.5 g/kg glucose i.p.) was “higher”.
